Source: patent US6355799B1, “Substituted benzene compounds, process for their preparation, and herbicidal and defoliant compositions containing them” (ISK Americas Incorporated, priority 1997, dated 2002)

Experiments:
Format in all cases: in vivo
[1] = tested on: field corn (Zea mays L., var. Dekalb 535, CORN); experiment: Post-emerge test, crop safety; settings: rating scale 0-100 (0 no damage, 100 complete death), 14 days after application
Outline: (§1)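 Sandy loam pots; pre-emerge: sown 1 d pre-spray, surface-watered after, then bottom-watered. Post-emerge: sown 8–21 d before, 2–3 leaf stage, + 0.25% v/v NIS, bottom-watered. Acetone, 187 l/ha track spray, 15–1000 g ai/ha. 0–100 injury score, day 14.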

[2] = tested on: upland rice (Oryza sp., var. Tebonnet, RICE); experiment: Post-emerge test, crop safety; settings: rating scale 0-100 (0 no damage, 100 complete death), 14 days after application
Outline: as §1

[3] = tested on: redroot pigweed (Amaranthus retroflexus, AMARE); experiment: Post-emerge test, greenhouse herbicide activity screening; settings: rating scale 0-100 (0 no damage, 100 complete death), 14 days after application
Outline: (§2)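 Visual ratings on a 0-100 scale (0 no damage, 100 all plants dead) were taken at 14 days after treatment. Rates of 15-1000 g ai/ha in acetone, 187 l/ha, were sprayed onto soil one day after planting (pre-emerge) or onto 2-3 leaf plants with 0.25% v/v surfactant (post-emerge).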

[4] = tested on: barnyardgrass (Echinochloa crus-galli, ECHCG); experiment: as above; settings: rating scale 0-100 (0 no damage, 100 complete death), 14 days after application
Outline: as §2

[5] = tested on: ivyleaf morningglory (Ipomoea hederacea, IPOHE); experiment: as above; settings: rating scale 0-100 (0 no damage, 100 complete death), 14 days after application
Outline: as §2

[6] = tested on: sicklepod (Cassia obtusifolia, CASOB); experiment: as above; settings: rating scale 0-100 (0 no damage, 100 complete death), 14 days after application
Outline: as §2

[7] = tested on: velvetleaf (Abutilon theophrasti, ABUTH); experiment: as above; settings: rating scale 0-100 (0 no damage, 100 complete death), 14 days after application
Outline: as §2

[8] = tested on: large crabgrass (Digitaria sanguinalis, DIGSA); experiment: as above; settings: rating scale 0-100 (0 no damage, 100 complete death), 14 days after application
Outline: as §2

[9] = tested on: lambsquarters (Chenopodium album, CHEAL); experiment: as above; settings: rating scale 0-100 (0 no damage, 100 complete death), 14 days after application
Outline: as §2

[10] = tested on: johnsongrass (Sorghum halepense, SORHA); experiment: as above; settings: rating scale 0-100 (0 no damage, 100 complete death), 14 days after application
Outline: as §2

[11] = tested on: green foxtail (Setaria viridis, SETVI); experiment: as above; settings: rating scale 0-100 (0 no damage, 100 complete death), 14 days after application
Outline: as §2

[12] = tested on: redroot pigweed (Amaranthus retroflexus, AMARE); experiment: Pre-emerge test, greenhouse herbicide activity screening; settings: rating scale 0-100, 14 days after application
Outline: as §2

[13] = tested on: barnyardgrass (Echinochloa crus-galli, ECHCG); experiment: as above; settings: rating scale 0-100, 14 days after application
Outline: as §1

[14] = tested on: ivyleaf morningglory (Ipomoea hederacea, IPOHE); experiment: as above; settings: rating scale 0-100, 14 days after application
Outline: as §1

[15] = tested on: sicklepod (Cassia obtusifolia, CASOB); experiment: as above; settings: rating scale 0-100, 14 days after application
Outline: as §1

[16] = tested on: velvetleaf (Abutilon theophrasti, ABUTH); experiment: as above; settings: rating scale 0-100, 14 days after application
Outline: as §1

[17] = tested on: large crabgrass (Digitaria sanguinalis, DIGSA); experiment: as above; settings: rating scale 0-100, 14 days after application
Outline: as §1

[18] = tested on: lambsquarters (Chenopodium album, CHEAL); experiment: as above; settings: rating scale 0-100, 14 days after application
Outline: as §1

[19] = tested on: johnsongrass (Sorghum halepense, SORHA); experiment: as above; settings: rating scale 0-100, 14 days after application
Outline: as §1

[20] = tested on: green foxtail (Setaria viridis, SETVI); experiment: as above; settings: rating scale 0-100, 14 days after application
Outline: as §1

[21] = tested on: field corn (Zea mays L., var. Dekalb 535, CORN); experiment: Pre-emerge test, crop safety; settings: rating scale 0-100, 14 days after application
Outline: (§3)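 Plants grown in 10 cm pots of sandy loam mix received acetone-dissolved compounds through a moving flat-fan nozzle. Doses ranged from 15 to 1000 g ai/ha. Pre-emerge pots were seeded one day earlier, post-emerge pots 8–21 days earlier. Fourteen days on, each pot was graded 0–100 for damage.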

[22] = tested on: upland rice (Oryza sp., var. Tebonnet, RICE); experiment: Pre-emerge test, crop safety; settings: rating scale 0-100, 14 days after application
Outline: as §3

CCCCCCOC(=O)C(C)(Cl)Cc1c(OC)c(Cl)cc(F)c1-n1c(=O)cc(C(F)(F)F)n(C)c1=O (centres unmarked) [14-38]
99: Pre-emerge herbicidal activity, phytotoxicity rating AMARE ([12]; 63 g ai/ha)
95: Post-emerge Herbicidal Activity, phytotoxicity rating DIGSA ([8]; Rate 63 g ai/ha)
90: Post-emerge Herbicidal Activity, phytotoxicity rating SETVI ([11]; Rate 63 g ai/ha) | Pre-emerge herbicidal activity, phytotoxicity rating DIGSA ([17]; 250 g ai/ha) | Pre-emerge herbicidal activity, phytotoxicity rating CHEAL ([18]; 63 g ai/ha)
100: Post-emerge phytotoxicity rating CORN (crop damage) ([1]; Rate 250 g ai/ha) | Post-emerge Herbicidal Activity, phytotoxicity rating AMARE ([3]; Rate 63 g ai/ha) | Post-emerge Herbicidal Activity, phytotoxicity rating AMARE ([3]; Rate 250 g ai/ha) | Post-emerge Herbicidal Activity, phytotoxicity rating ECHCG ([4]; Rate 63 g ai/ha) | Post-emerge Herbicidal Activity, phytotoxicity rating ECHCG ([4]; Rate 250 g ai/ha) | Post-emerge Herbicidal Activity, phytotoxicity rating ABUTH ([7]; Rate 63 g ai/ha) | Post-emerge Herbicidal Activity, phytotoxicity rating ABUTH ([7]; Rate 250 g ai/ha) | Post-emerge Herbicidal Activity, phytotoxicity rating DIGSA ([8]; Rate 250 g ai/ha) | Post-emerge Herbicidal Activity, phytotoxicity rating CHEAL ([9]; Rate 63 g ai/ha) | Post-emerge Herbicidal Activity, phytotoxicity rating CHEAL ([9]; Rate 250 g ai/ha) | Post-emerge Herbicidal Activity, phytotoxicity rating SETVI ([11]; Rate 250 g ai/ha) | Pre-emerge herbicidal activity, phytotoxicity rating AMARE ([12]; 250 g ai/ha) | Pre-emerge herbicidal activity, phytotoxicity rating ABUTH ([16]; 250 g ai/ha) | Pre-emerge herbicidal activity, phytotoxicity rating CHEAL ([18]; 250 g ai/ha)
80: Pre-emerge herbicidal activity, phytotoxicity rating SETVI ([20]; 250 g ai/ha)
30: Post-emerge Herbicidal Activity, phytotoxicity rating SORHA ([10]; Rate 250 g ai/ha) | Pre-emerge phytotoxicity rating, crop damage RICE ([22]; 250 g ai/ha)
70: Post-emerge Herbicidal Activity, phytotoxicity rating IPOHE ([5]; Rate 63 g ai/ha) | Post-emerge Herbicidal Activity, phytotoxicity rating IPOHE ([5]; Rate 250 g ai/ha) | Pre-emerge herbicidal activity, phytotoxicity rating ECHCG ([13]; 250 g ai/ha)
50: Post-emerge phytotoxicity rating CORN (crop damage) ([1]; Rate 63 g ai/ha)
0: Post-emerge phytotoxicity rating RICE (crop damage) ([2]; Rate 63 g ai/ha) | Post-emerge Herbicidal Activity, phytotoxicity rating CASOB ([6]; Rate 63 g ai/ha) | Post-emerge Herbicidal Activity, phytotoxicity rating CASOB ([6]; Rate 250 g ai/ha) | Post-emerge Herbicidal Activity, phytotoxicity rating SORHA ([10]; Rate 63 g ai/ha) | Pre-emerge herbicidal activity, phytotoxicity rating ECHCG ([13]; 63 g ai/ha) | Pre-emerge herbicidal activity, phytotoxicity rating IPOHE ([14]; 63 g ai/ha) | Pre-emerge herbicidal activity, phytotoxicity rating IPOHE ([14]; 250 g ai/ha) | Pre-emerge herbicidal activity, phytotoxicity rating CASOB ([15]; 63 g ai/ha) | Pre-emerge herbicidal activity, phytotoxicity rating CASOB ([15]; 250 g ai/ha) | Pre-emerge herbicidal activity, phytotoxicity rating DIGSA ([17]; 63 g ai/ha) | Pre-emerge herbicidal activity, phytotoxicity rating SORHA ([19]; 63 g ai/ha) | Pre-emerge herbicidal activity, phytotoxicity rating SORHA ([19]; 250 g ai/ha) | Pre-emerge herbicidal activity, phytotoxicity rating SETVI ([20]; 63 g ai/ha) | Pre-emerge phytotoxicity rating, crop damage CORN ([21]; 63 g ai/ha) | Pre-emerge phytotoxicity rating, crop damage CORN ([21]; 250 g ai/ha) | Pre-emerge phytotoxicity rating, crop damage RICE ([22]; 63 g ai/ha)
40: Post-emerge phytotoxicity rating RICE (crop damage) ([2]; Rate 250 g ai/ha) | Pre-emerge herbicidal activity, phytotoxicity rating ABUTH ([16]; 63 g ai/ha)
